Results: ChEMBL document CHEMBL5291721, “A preclinical secondary pharmacology resource illuminates target-adverse drug reaction associations of marketed drugs” (Nat Commun, 2023)

Legend:
[1] = target: T1, Alpha-1A adrenergic receptor (Homo sapiens, UniProt P35348); type: functional, cell-based
T1 sequence (P35348 whole entry): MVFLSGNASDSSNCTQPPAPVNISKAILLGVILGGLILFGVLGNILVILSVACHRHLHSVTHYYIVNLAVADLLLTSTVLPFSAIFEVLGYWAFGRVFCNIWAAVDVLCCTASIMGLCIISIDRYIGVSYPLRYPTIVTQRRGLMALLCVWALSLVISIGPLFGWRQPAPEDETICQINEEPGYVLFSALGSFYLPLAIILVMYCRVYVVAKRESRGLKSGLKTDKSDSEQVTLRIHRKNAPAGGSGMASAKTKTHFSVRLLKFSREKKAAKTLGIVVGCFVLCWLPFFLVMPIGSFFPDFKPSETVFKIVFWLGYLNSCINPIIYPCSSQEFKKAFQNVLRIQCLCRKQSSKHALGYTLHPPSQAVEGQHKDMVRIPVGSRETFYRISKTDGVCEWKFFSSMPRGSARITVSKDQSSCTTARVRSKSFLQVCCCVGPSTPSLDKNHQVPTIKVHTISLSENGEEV

Estrogen receptor = target: T2, Estrogen receptor (Homo sapiens, UniProt P03372)
T2 sequence (P03372 whole entry): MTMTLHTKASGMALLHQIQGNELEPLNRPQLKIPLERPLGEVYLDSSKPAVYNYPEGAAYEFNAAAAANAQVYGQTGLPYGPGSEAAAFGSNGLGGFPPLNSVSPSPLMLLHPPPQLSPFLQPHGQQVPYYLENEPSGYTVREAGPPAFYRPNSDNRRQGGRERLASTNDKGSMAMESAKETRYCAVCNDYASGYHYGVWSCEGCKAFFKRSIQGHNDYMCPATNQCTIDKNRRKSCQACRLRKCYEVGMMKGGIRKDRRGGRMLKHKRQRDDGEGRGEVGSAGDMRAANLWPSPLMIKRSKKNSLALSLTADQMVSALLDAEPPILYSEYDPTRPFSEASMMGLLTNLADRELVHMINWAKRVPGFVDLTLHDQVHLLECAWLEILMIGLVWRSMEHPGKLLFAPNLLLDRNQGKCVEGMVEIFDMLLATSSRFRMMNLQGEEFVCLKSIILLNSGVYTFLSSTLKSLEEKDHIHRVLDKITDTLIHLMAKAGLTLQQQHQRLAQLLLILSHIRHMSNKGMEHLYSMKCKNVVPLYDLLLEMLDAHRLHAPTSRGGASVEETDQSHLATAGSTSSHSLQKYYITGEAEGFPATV

Androgen receptor [2] = target: T3, Androgen receptor (Rattus norvegicus, UniProt P15207)
T3 sequence (P15207 whole entry): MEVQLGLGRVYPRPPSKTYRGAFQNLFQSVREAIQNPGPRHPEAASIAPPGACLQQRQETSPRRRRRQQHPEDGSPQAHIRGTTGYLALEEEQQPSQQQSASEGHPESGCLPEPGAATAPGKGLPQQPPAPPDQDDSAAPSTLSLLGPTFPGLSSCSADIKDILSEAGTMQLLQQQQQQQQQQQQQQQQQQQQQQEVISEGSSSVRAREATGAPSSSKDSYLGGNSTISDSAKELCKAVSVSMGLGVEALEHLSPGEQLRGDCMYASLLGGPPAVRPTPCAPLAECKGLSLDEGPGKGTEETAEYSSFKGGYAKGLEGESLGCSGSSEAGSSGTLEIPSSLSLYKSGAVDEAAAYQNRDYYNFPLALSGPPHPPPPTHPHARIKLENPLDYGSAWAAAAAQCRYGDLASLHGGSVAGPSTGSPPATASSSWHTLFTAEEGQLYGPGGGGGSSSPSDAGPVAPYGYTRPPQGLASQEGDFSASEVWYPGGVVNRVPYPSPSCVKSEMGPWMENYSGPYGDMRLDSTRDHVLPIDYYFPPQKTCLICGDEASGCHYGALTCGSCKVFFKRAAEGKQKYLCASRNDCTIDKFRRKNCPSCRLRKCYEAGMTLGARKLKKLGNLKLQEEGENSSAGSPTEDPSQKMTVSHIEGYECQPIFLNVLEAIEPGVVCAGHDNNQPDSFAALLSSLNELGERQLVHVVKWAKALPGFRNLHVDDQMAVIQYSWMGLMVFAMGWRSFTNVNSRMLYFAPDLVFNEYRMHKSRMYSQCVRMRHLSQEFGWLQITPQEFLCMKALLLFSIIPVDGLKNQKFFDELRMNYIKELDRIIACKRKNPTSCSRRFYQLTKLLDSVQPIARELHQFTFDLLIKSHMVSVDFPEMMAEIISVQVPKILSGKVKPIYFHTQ

[3] = target: T4, 5-hydroxytryptamine receptor 1A (Homo sapiens, UniProt P08908)
T4 sequence (P08908 whole entry): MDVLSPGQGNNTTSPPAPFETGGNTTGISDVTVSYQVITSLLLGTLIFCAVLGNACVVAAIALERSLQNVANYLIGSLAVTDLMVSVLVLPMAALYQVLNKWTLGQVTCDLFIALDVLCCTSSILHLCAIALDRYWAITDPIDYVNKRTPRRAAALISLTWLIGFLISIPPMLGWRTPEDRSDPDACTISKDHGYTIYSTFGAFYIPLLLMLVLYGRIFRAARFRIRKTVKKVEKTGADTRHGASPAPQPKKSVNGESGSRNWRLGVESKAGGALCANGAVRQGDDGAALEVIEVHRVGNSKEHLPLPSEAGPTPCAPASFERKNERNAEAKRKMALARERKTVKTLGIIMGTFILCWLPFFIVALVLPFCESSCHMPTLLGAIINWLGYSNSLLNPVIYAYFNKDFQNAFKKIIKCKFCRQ

Androgen receptor [4] = target: T3, Androgen receptor; type: functional
Androgen receptor [5] = target: T3, Androgen receptor; type: functional; remark: listed apart in the source
Also: assay procedure not described here.

Compound	AC50 [1] [µM]	AC50 (Estrogen receptor) [µM]	AC50 (Androgen receptor [2]) [µM]	AC50 [3] [µM]	AC50 (Androgen receptor [4]) [µM]	AC50 (Androgen receptor [5]) [µM]
CC(=O)c1ccc(S(=O)(=O)NC(=O)NC2CCCCC2)cc1 [ACETOHEXAMIDE]	> 30	> 10	> 10			
COc1cc(C)c(/C=C/C(C)=C/C=C/C(C)=C/C(=O)O)c(C)c1C [ACITRETIN]	> 30	> 30	4.6			
CCC1(CCC(C)C)C(=O)NC(=O)NC1=O [AMOBARBITAL]			> 10			
Cc1cc(=O)n(-c2ccccc2)n1C [ANTIPYRINE]	> 30	> 30	> 30	> 10		
O=C(O)c1ccc(NC(=O)[C@H](Cc2ccc(O)cc2)NC(=O)c2ccccc2)cc1 [BENTIROMIDE]		> 10	> 10			
CC(CN(C)C)C(C)(O)Cc1ccc(Cl)cc1 (centres undefined) [CLOBUTINOL]	> 30	> 30	> 30			
CCOC(=O)c1ncn2c1CN(C)C(=O)c1cc(F)ccc1-2 [FLUMAZENIL]	> 30	> 30	> 10		> 30	> 30
O=C1Nc2ccc(Cl)cc2C(c2ccccc2Cl)=NC1O (centres undefined) [LORAZEPAM]	> 30	> 30	> 30	> 10		
CC(=O)[C@H]1CC[C@H]2[C@@H]3C[C@H](C)C4=CC(=O)CC[C@]4(C)[C@H]3[C@@H](O)C[C@]12C [MEDRYSONE]	> 30		0.257			
O=C(c1cc(Cc2n[nH]c(=O)c3ccccc23)ccc1F)N1CCN(C(=O)C2CC2)CC1 [OLAPARIB]		> 30	> 30			
Fc1ccc([C@@H]2CCNC[C@H]2COc2ccc3c(c2)OCO3)cc1 [PAROXETINE]		> 30	> 30	> 10		
CCCN(CCC)S(=O)(=O)c1ccc(C(=O)O)cc1 [PROBENECID]			> 10			
CCC(NC(C)C)C(O)c1ccc(O)c2[nH]c(=O)ccc12 (centres undefined) [PROCATEROL]	> 30	> 30			> 30	> 30
CC(C(=O)O)c1ccc2c(c1)CC(=O)c1ccccc1S2 (centres undefined) [ZALTOPROFEN]	> 30	> 30			> 30	> 30
CC(c1cc2ccccc2s1)N(O)C(N)=O (centres undefined) [ZILEUTON]	> 30	> 30	> 30			
